# Laboratory results reported in patent US20250295656A1, “COMBINATION OF LURBINECTEDIN AND IMMUNE CHECKPOINT INHIBITORS” (priority 2020, published 2025).
# Legend:
# [1] = test system: U2OS WT cells; experiment: Cytoplasmic quinacrine granularity (intracellular ATP, indicator of ATP release); format: cell-based, human; conditions: lurbinectedin 1 nM to 1 μM, MTX 1 and 3 μM, dose-dependent, decreased over time, vs untreated controls
# Method: (§1) (a) Human osteosarcoma U2OS (a), human breast cancer HCC70 (b) human colon cancer HT29 cells (c) and murine methylcholantrene-induced fibrosarcoma MCA205 cells (d) were treated with lurbinectedin (Lurbi, 1 nM, 10 nM, 100 nM and 1 μM) for the indicated times. Subsequently, the cells were stained with 1 μM Hoechst 33342 and 1 μM propidium iodide and assessed for the loss of viability by automated image acquisition. Images were segmented, cellular debris was excluded and the number of cells with normal nuclear morphology was enumerated. Cells stably expressing CALR-GFP were treated as above. Following the cells were fixed with 3.7% of PFA, stained with 1 μM Hoechst 33342 and assessed by automated image acquisition. Images were segmented, cellular debris was excluded and CALR-GFP granularity (a surrogate marker of CALR exposure) was evaluated in the cytoplasmic region of cells with normal nuclear morphology. Wild type cells were treated as above and then assessed for cytoplasmic quinacrine granularity (after staining with the ATP-sensitive dye quinacrine together with Hoechst 33342) by automated image acquisition, segmentation and analysis. Cells stably expressing HMGB1-GFP were treated as above and then assessed for nuclear HMGB1-GFP fluorescence intensity. The cells were fixed and stained with Hoechst 33342 and images were acquired, segmented and analyzed. […]
# [2] = test system: U2OS cells stably expressing CALR-GFP; experiment: CALR-GFP granularity (surrogate marker of CALR exposure); format: cell-based, human; conditions: lurbinectedin 1 nM to 1 μM, MTX 1 and 3 μM, 4-32 hours, vs untreated controls
# Method: as §1
smiles,measurement,setting,value
COc1ccc2[nH]c3c(c2c1)CCN[C@]31CS[C@@H]2c3c(OC(C)=O)c(C)c4c(c3[C@H](COC1=O)N1[C@@H]2[C@H]2c3c(cc(C)c(OC)c3O)C[C@@H]([C@@H]1O)N2C)OCO4 [lurbinectedin],ATP signal (cytoplasmic quinacrine granularity),[1],significant decrease
same,CALR-granularity,[2],time- and dose-dependent increase
